Test systems include K-562 leukemia; MOLT-4 leukemia; NCI-H522 lung; SK-OV-3 ovarian; UACC-62 melanoma; KM12 colon; ACHN renal; UO-31 renal; SF-295 CNS; LOX IMVI melanoma.
Assay in all cases: NCI anticancer screen, dose series, 48 h

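All cell lines were grown in 96-well plates and treated with compound for 48 hours. Abbreviation: GI50, concentration required for 50% inhibition of growth. Definition used: TGI = concentration required for complete inhibition of growth.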 A value given as a limit tells only on which side of the number the result lay.

For `CCOC(=O)NC(=O)c1cn(CCCCCOC(=O)NCCCCCCNC(=O)OCCCCCn2cc(C(=O)NC(=O)OCC)c(=O)[nH]c2=O)c(=O)[nH]c1=O`, the TGI with K-562 leukemia, in the experiment on MOLT-4 leukemia, with NCI-H522 lung, in the experiment with SK-OV-3 ovarian, in the experiment on UACC-62 melanoma and in the experiment with KM12 colon was more than 100 µM in each case. The TGI in the experiment on ACHN renal, with UO-31 renal, with SF-295 CNS and in the experiment on LOX IMVI melanoma was more than 100 µM in each case.
In the case of `CCOC(=O)c1c[nH]c2c(OCc3ccccc3)c3ccccc3c(O)c2c1=O`, the GI50 in the experiment on K-562 leukemia was 3.15 µM; in the experiment on MOLT-4 leukemia, 6.24 µM; in the experiment on NCI-H522 lung, 13.3 µM; in the experiment with SK-OV-3 ovarian, 26.3 µM; in the experiment with UACC-62 melanoma, 3.1 µM; with KM12 colon, 6.89 µM. For the same compound, the GI50 is 4.97 µM with ACHN renal, 21.7 µM in the experiment on UO-31 renal, 2.09 µM with SF-295 CNS and 6.83 µM in the experiment on LOX IMVI melanoma. Also, the TGI is more than 39.1 µM in the experiment with K-562 leukemia; more than 100 µM with MOLT-4 leukemia; more than 83.9 µM in the experiment with NCI-H522 lung; more than 100 µM in the experiment with SK-OV-3 ovarian; 15.8 µM in the experiment with UACC-62 melanoma; more than 84.5 µM in the experiment on KM12 colon. Besides, the TGI with ACHN renal was 33.4 µM; in the experiment with UO-31 renal, more than 100 µM; in the experiment with SF-295 CNS it was 15.5 µM; in the experiment with LOX IMVI melanoma it was 33 µM.
As to `CN(C)c1ccc(/C=C(\C#N)c2cc3ccccc3n2C)cc1`, the GI50 in the experiment on K-562 leukemia was 0.0407 µM; with MOLT-4 leukemia, 0.32 µM; in the experiment on NCI-H522 lung, 0.122 µM; in the experiment on SK-OV-3 ovarian it was 0.532 µM; in the experiment on UACC-62 melanoma it was 0.103 µM; in the experiment on KM12 colon, 0.211 µM. Also, the GI50 with ACHN renal was 0.386 µM; with UO-31 renal, 0.82 µM; in the experiment on SF-295 CNS, 0.0787 µM; in the experiment with LOX IMVI melanoma, 0.425 µM. In addition, the TGI is more than 100 µM in the experiment with K-562 leukemia; more than 100 µM in the experiment on MOLT-4 leukemia; 1.29 µM in the experiment on NCI-H522 lung; more than 100 µM with SK-OV-3 ovarian; more than 100 µM in the experiment on UACC-62 melanoma; more than 100 µM with KM12 colon. The TGI in the experiment with ACHN renal, in the experiment with UO-31 renal and in the experiment on LOX IMVI melanoma was more than 100 µM throughout.
With `C=CCCC(O)c1ccc(C(O)CCCCCCCCCCCC)o1` (centres undefined), the GI50 in the experiment with K-562 leukemia is 9.29 µM; in the experiment with MOLT-4 leukemia, 7.16 µM; with NCI-H522 lung, 17.3 µM; in the experiment with SK-OV-3 ovarian, more than 100 µM; with UACC-62 melanoma, 17.3 µM; with KM12 colon it was 21.7 µM. Besides, the GI50 is 15.8 µM with ACHN renal, 18.7 µM in the experiment on UO-31 renal, 36.7 µM in the experiment on SF-295 CNS and 16.2 µM in the experiment on LOX IMVI melanoma. For the same compound, the TGI is 27.2 µM in the experiment with K-562 leukemia; 38.3 µM with MOLT-4 leukemia; 44.4 µM in the experiment on NCI-H522 lung; more than 100 µM with SK-OV-3 ovarian; 32.8 µM in the experiment with UACC-62 melanoma; 42.8 µM in the experiment with KM12 colon. Also, the TGI is 29.2 µM in the experiment with ACHN renal, 41.4 µM with UO-31 renal, more than 100 µM with SF-295 CNS and 29.7 µM with LOX IMVI melanoma.
Regarding `CNc1nnnn1C1OC(CO)C(O)C1O` (centres undefined), the TGI in the experiment on K-562 leukemia, in the experiment on MOLT-4 leukemia, in the experiment on NCI-H522 lung, in the experiment on SK-OV-3 ovarian, with UACC-62 melanoma and in the experiment with KM12 colon was more than 100 µM throughout. In addition, the TGI in the experiment with ACHN renal, in the experiment on UO-31 renal, with SF-295 CNS and in the experiment on LOX IMVI melanoma was more than 100 µM in each case.
With `O=C(N/N=C/c1coc2ccc(Cl)cc2c1=O)c1ccncc1`, the GI50 with K-562 leukemia is 9.49 µM; in the experiment with MOLT-4 leukemia, 21.1 µM; in the experiment with NCI-H522 lung, 58.2 µM; with SK-OV-3 ovarian, more than 100 µM; in the experiment on UACC-62 melanoma it was 46.5 µM; with KM12 colon, 58.4 µM. The GI50 in the experiment with ACHN renal is 29.9 µM; in the experiment with UO-31 renal, 58.4 µM; in the experiment with SF-295 CNS it was 50.1 µM; with LOX IMVI melanoma, 38.6 µM. Besides, the TGI is 66.9 µM in the experiment with K-562 leukemia; 71.2 µM in the experiment with MOLT-4 leukemia; more than 100 µM in the experiment on NCI-H522 lung; more than 100 µM in the experiment on SK-OV-3 ovarian; more than 100 µM in the experiment on UACC-62 melanoma; more than 100 µM in the experiment on KM12 colon. The TGI with ACHN renal, in the experiment on UO-31 renal, with SF-295 CNS and with LOX IMVI melanoma was more than 100 µM throughout.
As to `CCCCCCCCCCCC1=NC(C)(C)CN1CCO`, the GI50 in the experiment with K-562 leukemia is 2.44 µM; in the experiment with MOLT-4 leukemia, 3.23 µM; in the experiment with NCI-H522 lung, 4.57 µM; in the experiment with SK-OV-3 ovarian, 14.8 µM; in the experiment with UACC-62 melanoma it was 1.97 µM; in the experiment on KM12 colon, 2.85 µM. Also, the GI50 was 9.05 µM in the experiment with ACHN renal, 7.25 µM in the experiment with UO-31 renal, 2.98 µM with SF-295 CNS and 1.97 µM in the experiment on LOX IMVI melanoma. Further, the TGI with K-562 leukemia amounted to 5.57 µM; with MOLT-4 leukemia, 9.94 µM; in the experiment on NCI-H522 lung, 13 µM; with SK-OV-3 ovarian, 29.2 µM; with UACC-62 melanoma, 4.41 µM; in the experiment with KM12 colon it was 7.57 µM. For the same compound, the TGI with ACHN renal came to 23.5 µM; in the experiment with UO-31 renal, 21 µM; with SF-295 CNS, 9.85 µM; with LOX IMVI melanoma, 4.65 µM.
Consider `O=C1Nc2ccccc2C1(c1ccc(O)c(F)c1)c1ccc(O)c(F)c1`, for which the GI50 in the experiment with K-562 leukemia is 11.6 µM; with MOLT-4 leukemia, 10.6 µM; with NCI-H522 lung, 11.5 µM; in the experiment on SK-OV-3 ovarian it was 21.1 µM; with UACC-62 melanoma, 10.2 µM; in the experiment with KM12 colon, 3.07 µM. Besides, the GI50 with ACHN renal is 3.07 µM; in the experiment on UO-31 renal it was 11.9 µM; in the experiment on SF-295 CNS, 12.5 µM; with LOX IMVI melanoma it was 0.53 µM. Further, the TGI in the experiment with K-562 leukemia is more than 100 µM; in the experiment with MOLT-4 leukemia, 67 µM; in the experiment on NCI-H522 lung, 31.3 µM; with SK-OV-3 ovarian, 52 µM; in the experiment with UACC-62 melanoma it was 33.7 µM; in the experiment on KM12 colon, 22.9 µM. Further, the TGI is more than 84 µM with ACHN renal, 42.8 µM in the experiment with UO-31 renal, 28.5 µM in the experiment with SF-295 CNS and 15.8 µM with LOX IMVI melanoma.

The record behind these values is PubChem BioAssay (NCI).
